In ChEMBL document CHEMBL1148870, “Novel inhibitors of VEGF receptors-1 and -2 based on azole-5-carboxamide templates” (Bioorg Med Chem Lett, 2007):
Calls of active or inactive are those of the source. The rule behind the calls is not given here.

Columns and labels:
[1] = biological target: Receptor tyrosine-protein kinase erbB-2 (Homo sapiens) (UniProt P04626); test: Inhibition of ErbB2/Her2 at 10 uM; design: scale not given: the % may be the effect or the level left
[2] = biological target: Cyclin-dependent kinase 2 (Homo sapiens) (UniProt P24941); test: Inhibition of Cdk2 at 10 uM; design: scale not given: the % may be the effect or the level left
[3] = biological target: T1, Vascular endothelial growth factor receptor 2 (Homo sapiens, UniProt P35968); test: Inhibition of VEGFR2 assessed as inhibition of phosphorylation in human 293 cells by cell-based ELISA; assay type: functional, HEK293
Homo sapiens [4] = species: Homo sapiens; test: Inhibition of InR at 10 uM; design: scale not given: the % may be the effect or the level left
Homo sapiens [5] = species: Homo sapiens; test: Inhibition of Cdk1 at 10 uM; design: scale not given: the % may be the effect or the level left
Caco-2 = test: Passive diffusion assessed as absorption potential across Caco-2 cell membrane; assay type: ADME, cell-based; settings: human
[6] = biological target: Glycogen synthase kinase-3 beta (Homo sapiens) (UniProt P49841); test: Inhibition of GSK3-beta at 10 uM; design: scale not given: the % may be the effect or the level left
[7] = biological target: Vascular endothelial growth factor receptor 3 (Homo sapiens) (UniProt P35916); test: Inhibition of Flt4 at 10 uM; design: scale not given: the % may be the effect or the level left
[8] = biological target: Vascular endothelial growth factor receptor 1 (Homo sapiens, UniProt P17948); test: Inhibition of VEGFR1 assessed as inhibition of phosphorylation in presence of 2 uM ATP by HTRF assay; assay type: functional
Vascular endothelial growth factor receptor 1, sequence (P17948 whole entry): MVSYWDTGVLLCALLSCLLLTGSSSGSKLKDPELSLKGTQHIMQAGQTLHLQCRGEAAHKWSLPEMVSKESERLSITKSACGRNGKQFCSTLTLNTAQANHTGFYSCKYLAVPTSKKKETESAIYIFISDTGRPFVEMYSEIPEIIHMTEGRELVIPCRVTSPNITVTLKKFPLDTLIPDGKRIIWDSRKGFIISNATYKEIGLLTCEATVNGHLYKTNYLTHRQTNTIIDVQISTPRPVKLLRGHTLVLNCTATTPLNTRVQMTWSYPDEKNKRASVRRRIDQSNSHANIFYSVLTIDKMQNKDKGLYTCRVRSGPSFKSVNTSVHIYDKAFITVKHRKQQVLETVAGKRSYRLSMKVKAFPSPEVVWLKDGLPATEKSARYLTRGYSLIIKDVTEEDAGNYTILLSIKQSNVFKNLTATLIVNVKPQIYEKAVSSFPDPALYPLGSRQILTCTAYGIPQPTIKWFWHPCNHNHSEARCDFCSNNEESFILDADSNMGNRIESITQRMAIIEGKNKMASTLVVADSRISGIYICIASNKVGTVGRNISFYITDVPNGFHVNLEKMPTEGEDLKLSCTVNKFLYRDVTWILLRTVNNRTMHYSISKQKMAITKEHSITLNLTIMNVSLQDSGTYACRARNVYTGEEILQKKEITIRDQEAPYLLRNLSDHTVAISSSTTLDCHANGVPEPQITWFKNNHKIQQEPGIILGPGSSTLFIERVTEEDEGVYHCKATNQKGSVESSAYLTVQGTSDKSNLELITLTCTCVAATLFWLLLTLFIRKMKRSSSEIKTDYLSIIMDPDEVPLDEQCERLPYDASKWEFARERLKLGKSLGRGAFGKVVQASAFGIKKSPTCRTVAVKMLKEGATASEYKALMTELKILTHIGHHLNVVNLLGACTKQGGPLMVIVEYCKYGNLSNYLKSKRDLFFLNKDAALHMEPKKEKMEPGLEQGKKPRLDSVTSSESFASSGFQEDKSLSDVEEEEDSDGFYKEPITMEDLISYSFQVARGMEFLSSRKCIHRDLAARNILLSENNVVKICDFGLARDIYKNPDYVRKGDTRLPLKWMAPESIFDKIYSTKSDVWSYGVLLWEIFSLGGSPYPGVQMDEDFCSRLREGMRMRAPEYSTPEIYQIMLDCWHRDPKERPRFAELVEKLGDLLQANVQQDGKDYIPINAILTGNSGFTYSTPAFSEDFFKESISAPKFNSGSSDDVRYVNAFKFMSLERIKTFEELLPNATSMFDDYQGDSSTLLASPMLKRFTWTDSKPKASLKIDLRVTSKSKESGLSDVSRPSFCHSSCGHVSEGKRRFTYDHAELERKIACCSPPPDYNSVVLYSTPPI

[9] = biological target: RAF proto-oncogene serine/threonine-protein kinase (Homo sapiens) (UniProt P04049); test: Inhibition of Raf1 at 10 uM; design: scale not given: the % may be the effect or the level left
RAF proto-oncogene serine/threonine-protein kinase (Homo sapiens), sequence (P04049 whole entry, the tested form may be a part): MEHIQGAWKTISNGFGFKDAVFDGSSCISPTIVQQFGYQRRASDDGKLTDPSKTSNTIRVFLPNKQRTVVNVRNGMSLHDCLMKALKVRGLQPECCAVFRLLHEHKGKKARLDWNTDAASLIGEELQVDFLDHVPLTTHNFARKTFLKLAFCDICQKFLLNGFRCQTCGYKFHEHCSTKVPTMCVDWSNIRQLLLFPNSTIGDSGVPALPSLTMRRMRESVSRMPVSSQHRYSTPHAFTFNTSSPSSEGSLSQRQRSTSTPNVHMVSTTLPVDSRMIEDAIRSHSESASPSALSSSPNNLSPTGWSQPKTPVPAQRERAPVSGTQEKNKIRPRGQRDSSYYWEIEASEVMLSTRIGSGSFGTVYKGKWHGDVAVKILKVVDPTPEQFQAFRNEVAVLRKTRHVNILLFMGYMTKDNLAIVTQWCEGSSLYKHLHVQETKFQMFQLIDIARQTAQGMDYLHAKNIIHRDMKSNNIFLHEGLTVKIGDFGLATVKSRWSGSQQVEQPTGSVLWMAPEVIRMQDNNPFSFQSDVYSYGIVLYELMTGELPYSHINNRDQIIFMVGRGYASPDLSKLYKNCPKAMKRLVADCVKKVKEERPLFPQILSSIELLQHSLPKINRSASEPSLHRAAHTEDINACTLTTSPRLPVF

[10] = Passive diffusion assessed as intrinsic permeability across Caco-2 cell membrane; assay type: ADME, cell-based; settings: human, read-out: permeability (converted)
[11] = biological target: Receptor-type tyrosine-protein kinase FLT3 (Homo sapiens) (UniProt P36888); test: Inhibition of Flt3 at 10 uM; design: scale not given: the % may be the effect or the level left
Receptor-type tyrosine-protein kinase FLT3 (Homo sapiens), sequence (P36888 whole entry): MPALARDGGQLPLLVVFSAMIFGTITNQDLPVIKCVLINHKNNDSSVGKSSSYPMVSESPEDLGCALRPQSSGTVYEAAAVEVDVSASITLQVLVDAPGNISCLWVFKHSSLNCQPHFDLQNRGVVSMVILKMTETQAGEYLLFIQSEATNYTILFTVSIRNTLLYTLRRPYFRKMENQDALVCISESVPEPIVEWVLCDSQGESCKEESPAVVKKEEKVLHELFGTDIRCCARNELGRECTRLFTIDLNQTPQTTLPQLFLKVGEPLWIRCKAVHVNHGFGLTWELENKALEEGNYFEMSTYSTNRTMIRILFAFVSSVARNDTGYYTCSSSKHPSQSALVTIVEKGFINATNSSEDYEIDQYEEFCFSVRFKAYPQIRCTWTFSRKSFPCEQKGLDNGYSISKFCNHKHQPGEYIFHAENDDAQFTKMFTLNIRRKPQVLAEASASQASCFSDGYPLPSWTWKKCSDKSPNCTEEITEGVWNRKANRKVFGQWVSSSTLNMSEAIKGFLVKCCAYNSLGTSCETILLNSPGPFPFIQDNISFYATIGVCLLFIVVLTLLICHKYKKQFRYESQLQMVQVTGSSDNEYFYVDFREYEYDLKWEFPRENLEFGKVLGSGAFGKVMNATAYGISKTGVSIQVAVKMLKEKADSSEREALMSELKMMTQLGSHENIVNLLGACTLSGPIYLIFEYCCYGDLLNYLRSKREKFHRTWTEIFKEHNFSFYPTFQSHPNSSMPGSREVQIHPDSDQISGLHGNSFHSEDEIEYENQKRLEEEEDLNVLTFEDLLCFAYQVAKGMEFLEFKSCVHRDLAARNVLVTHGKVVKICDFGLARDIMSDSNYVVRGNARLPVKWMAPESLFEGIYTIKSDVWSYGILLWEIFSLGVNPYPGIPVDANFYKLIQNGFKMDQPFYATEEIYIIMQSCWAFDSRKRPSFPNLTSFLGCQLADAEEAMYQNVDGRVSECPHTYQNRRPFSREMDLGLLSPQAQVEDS

[12] = biological target: Hepatocyte growth factor receptor (Homo sapiens) (UniProt P08581); test: Inhibition of cMet at 10 uM; design: scale not given: the % may be the effect or the level left
[13] = biological target: RAC-alpha serine/threonine-protein kinase (Homo sapiens) (UniProt P31749); test: Inhibition of PKB/Akt at 10 uM; design: scale not given: the % may be the effect or the level left
RAC-alpha serine/threonine-protein kinase (Homo sapiens), sequence (P31749 whole entry): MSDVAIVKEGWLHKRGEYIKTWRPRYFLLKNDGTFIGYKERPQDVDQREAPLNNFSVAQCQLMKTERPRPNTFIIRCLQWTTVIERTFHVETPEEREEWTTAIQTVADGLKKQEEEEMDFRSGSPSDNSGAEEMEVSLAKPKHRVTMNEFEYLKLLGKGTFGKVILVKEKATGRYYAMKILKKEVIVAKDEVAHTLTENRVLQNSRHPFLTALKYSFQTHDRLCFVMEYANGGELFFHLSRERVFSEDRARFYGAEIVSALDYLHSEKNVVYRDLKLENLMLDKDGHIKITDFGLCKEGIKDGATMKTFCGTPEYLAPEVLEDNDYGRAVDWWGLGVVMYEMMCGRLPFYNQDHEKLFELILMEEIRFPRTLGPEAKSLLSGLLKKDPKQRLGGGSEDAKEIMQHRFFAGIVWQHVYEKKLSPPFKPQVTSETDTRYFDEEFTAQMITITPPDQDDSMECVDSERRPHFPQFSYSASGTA

Homo sapiens [14] = species: Homo sapiens; test: Inhibition of PKA at 10 uM; design: scale not given: the % may be the effect or the level left
[15] = biological target: Insulin-like growth factor 1 receptor (Homo sapiens) (UniProt P08069); test: Inhibition of IGF1R at 10 uM; design: scale not given: the % may be the effect or the level left
Insulin-like growth factor 1 receptor (Homo sapiens), sequence (P08069 31-736 limits assumed): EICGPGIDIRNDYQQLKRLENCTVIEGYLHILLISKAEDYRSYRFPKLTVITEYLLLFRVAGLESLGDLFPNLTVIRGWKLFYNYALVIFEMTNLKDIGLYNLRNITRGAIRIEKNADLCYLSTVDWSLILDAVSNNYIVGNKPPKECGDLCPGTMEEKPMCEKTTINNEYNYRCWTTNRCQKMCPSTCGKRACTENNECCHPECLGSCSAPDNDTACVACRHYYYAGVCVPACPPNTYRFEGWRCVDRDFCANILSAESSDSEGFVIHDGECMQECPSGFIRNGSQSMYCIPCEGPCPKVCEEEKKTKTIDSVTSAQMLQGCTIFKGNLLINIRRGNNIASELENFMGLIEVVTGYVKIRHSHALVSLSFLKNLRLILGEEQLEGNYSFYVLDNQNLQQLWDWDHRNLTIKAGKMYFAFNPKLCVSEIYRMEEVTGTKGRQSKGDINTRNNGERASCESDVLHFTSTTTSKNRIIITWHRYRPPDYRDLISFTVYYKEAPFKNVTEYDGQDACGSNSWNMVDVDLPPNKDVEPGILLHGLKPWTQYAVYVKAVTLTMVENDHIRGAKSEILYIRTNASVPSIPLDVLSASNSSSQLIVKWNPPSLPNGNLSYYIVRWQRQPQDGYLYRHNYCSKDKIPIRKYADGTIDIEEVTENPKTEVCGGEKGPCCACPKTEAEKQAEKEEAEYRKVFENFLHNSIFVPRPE
Insulin-like growth factor 1 receptor (Homo sapiens), sequence (P08069 741-1367 limits assumed): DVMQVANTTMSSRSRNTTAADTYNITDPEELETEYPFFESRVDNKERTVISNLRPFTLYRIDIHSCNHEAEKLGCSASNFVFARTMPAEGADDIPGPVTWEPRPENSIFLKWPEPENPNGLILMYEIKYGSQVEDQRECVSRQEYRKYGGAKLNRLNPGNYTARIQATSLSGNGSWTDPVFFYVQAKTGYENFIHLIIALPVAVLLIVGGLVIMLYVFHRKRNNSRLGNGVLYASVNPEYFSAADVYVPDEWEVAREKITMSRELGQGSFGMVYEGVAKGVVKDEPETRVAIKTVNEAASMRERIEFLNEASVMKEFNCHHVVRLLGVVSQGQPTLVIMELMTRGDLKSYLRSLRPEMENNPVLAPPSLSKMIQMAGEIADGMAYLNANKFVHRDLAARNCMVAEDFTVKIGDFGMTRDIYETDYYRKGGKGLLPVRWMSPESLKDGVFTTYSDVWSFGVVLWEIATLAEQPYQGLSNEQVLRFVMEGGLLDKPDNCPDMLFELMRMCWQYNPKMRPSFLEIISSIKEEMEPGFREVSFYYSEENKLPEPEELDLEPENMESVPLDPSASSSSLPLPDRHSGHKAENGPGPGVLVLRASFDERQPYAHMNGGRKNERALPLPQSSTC

[16] = biological target: T1, Vascular endothelial growth factor receptor 2; test: Inhibition of VEGFR2 assessed as inhibition of phosphorylation in presence of 2 uM ATP by HTRF assay; assay type: functional
[17] = biological target: Fibroblast growth factor receptor 1 (Homo sapiens) (UniProt P11362); test: Inhibition of FGFR1 at 10 uM; design: scale not given: the % may be the effect or the level left
[18] = biological target: Epidermal growth factor receptor (Homo sapiens) (UniProt P00533); test: Inhibition of ErbB1 at 10 uM; design: scale not given: the % may be the effect or the level left
Homo sapiens [19] = species: Homo sapiens; test: Inhibition of bcr-Abl at 10 uM; design: scale not given: the % may be the effect or the level left
[20] = biological target: T1, Vascular endothelial growth factor receptor 2; test: Displacement of [32P]ATP from human VEGFR2 after 45 mins
DU-145 = test: Cytotoxicity against human DU145 cells after 24 hrs; assay type: functional; settings: DU-145, 24 h
A-431 = test: Cytotoxicity against human A431 cells after 24 hrs; assay type: functional; settings: A-431, 24 h
HEK293 = test: Cytotoxicity against HEK293 cells after 24 hrs; assay type: functional, cell-based; settings: Homo sapiens
DLD-1 = test: Cytotoxicity against human DLD1 cells after 24 hrs; assay type: functional; settings: DLD-1, 24 h

SMILES | Activity [1] [%] | Activity [2] [%] | IC50 [3] [nM] | Activity (Homo sapiens [4]) [%] | Activity (Homo sapiens [5]) [%] | Activity (Caco-2) | Activity [6] [%] | Activity [7] [%] | IC50 [8] [nM] | Activity [9] [%] | Papp [10] [×10⁻⁶ cm/s] | Activity [11] [%] | Activity [12] [%] | Activity [13] [%] | Activity (Homo sapiens [14]) [%] | Activity [15] [%] | IC50 [16] [nM] | Activity [17] [%] | Activity [18] [%] | Activity (Homo sapiens [19]) [%] | other results
CCc1ccc(NC(=O)c2ccnn2CCc2ccncc2)cc1 | > 30 | > 30 | 86 | > 30 | > 30 | Active | > 30 | > 30 | 220 | > 30 | 9.7 | > 30 | > 30 | > 30 | > 30 | > 30 | 120 | > 30 | < 30 | > 30 | 
O=C(Nc1ccc(Cl)cc1)c1ccnn1CCc1ccncc1 | > 30 | > 30 | 90 | > 30 | > 30 | Active | > 30 | > 30 | 97 | > 30 | 6.95 | > 30 | > 30 | > 30 | > 30 | > 30 | 77 | > 30 | < 30 | > 30 | Ki [20]: 90 nM; Ki [16]: 110 nM
COc1ccc(NC(=O)c2ccnn2CCc2ccncc2)cc1OC | > 30 | > 30 | 90 | > 30 | > 30 |  | > 30 | > 30 | 1230 | > 30 |  | > 30 | > 30 | > 30 | > 30 | > 30 | 440 | > 30 | < 30 | > 30 | GI50 (DU-145): 220 nM; GI50 (A-431): 50 nM; Activity (HEK293): Active; GI50 (DLD-1): 125 nM
O=C(Nc1ccc(C(F)(F)F)c(Cl)c1)c1ccnn1CCc1ccncc1 | > 30 | > 30 | 95 | > 30 | > 30 | Active | > 30 | > 30 | 980 | > 30 | 4.6 | > 30 | > 30 | > 30 | > 30 | > 30 | 180 | > 30 | < 30 | > 30 | Ki [20]: 160 nM; Ki [16]: 170 nM
CC(C)c1ccc(NC(=O)c2ccnn2CCc2ccncc2)cc1 | > 30 | > 30 | 53 | > 30 | > 30 | Active | > 30 | > 30 | 440 | > 30 | 8.18 | > 30 | > 30 | > 30 | > 30 | > 30 | 74 | > 30 | < 30 | > 30 | 
O=C(Nc1cnc2ccccc2c1)c1ccnn1CCc1ccncc1 | > 30 | > 30 | 1220 | > 30 | > 30 |  | > 30 | > 30 | 380 | > 30 |  | > 30 | > 30 | > 30 | > 30 | > 30 | 180 | > 30 | < 30 | > 30 | 
O=C(Nc1ccc(C(F)(F)F)cc1)c1nnnn1CCc1ccncc1 | > 30 | > 30 | 2960 | > 30 | > 30 |  | > 30 | > 30 | 1080 | > 30 |  | > 30 | > 30 | > 30 | > 30 | > 30 | 850 | > 30 | < 30 | > 30 | 

Stronger by IC50 [3], values ahead:

Activity [1] [%] | Activity [2] [%] | IC50 [3] [nM] | Activity (Homo sapiens [4]) [%] | Activity (Homo sapiens [5]) [%] | Activity (Caco-2) | Activity [6] [%] | Activity [7] [%] | IC50 [8] [nM] | Activity [9] [%] | Papp [10] [×10⁻⁶ cm/s] | Activity [11] [%] | Activity [12] [%] | Activity [13] [%] | Activity (Homo sapiens [14]) [%] | Activity [15] [%] | IC50 [16] [nM] | Activity [17] [%] | Activity [18] [%] | Activity (Homo sapiens [19]) [%] | SMILES | other results
> 30 | > 30 | 48 | > 30 | > 30 | Active | > 30 | > 30 | 380 | > 30 | 6.42 | > 30 | > 30 | > 30 | > 30 | > 30 | 69 | > 30 | < 30 | > 30 | O=C(Nc1ccc(C(F)(F)F)cc1)c1ccnn1CCc1ccncc1 | 
> 30 | > 30 | 33 | > 30 | > 30 | Active | > 30 | > 30 | 590 | > 30 | 7.43 | > 30 | > 30 | > 30 | > 30 | > 30 | 42 | > 30 | < 30 | > 30 | CC(C)(C)c1ccc(NC(=O)c2ccnn2CCc2ccncc2)cc1 | Ki [20]: 140 nM; Ki [16]: 130 nM
> 30 | > 30 | 18 | > 30 | > 30 | Active | > 30 | > 30 | 190 | > 30 | 7.03 | > 30 | > 30 | > 30 | > 30 | > 30 | 28 | > 30 | < 30 | > 30 | O=C(Nc1ccc(OC(F)(F)F)cc1)c1ccnn1CCc1ccncc1 | Ki [20]: 80 nM; Ki [16]: 90 nM
> 30 | > 30 | 21 | > 30 | > 30 | Active | > 30 | > 30 | 320 | > 30 | 4.73 | > 30 | > 30 | > 30 | > 30 | > 30 |  | > 30 | < 30 | > 30 | O=C(Nc1cccc(OC(F)(F)Cl)c1)c1ccnn1CCc1ccncc1 | Ki [20]: 90 nM; Ki [16]: 70 nM
